Measured values: ChEMBL document CHEMBL1201862, “PubChem BioAssay data set” (2004)
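Five compound concentrations were applied to cells in 96-well plates for 48 hours; endpoints were derived by simple linear interpolation of the resulting dose-response curve. Abbreviation: GI50, concentration required for 50% inhibition of growth.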 The source made the active and inactive calls. No stated cut-off is given here; in the data, active = GI50 up to about 1.1 µM and inactive = higher.

Tests used:
Assay in all cases: DTP human tumour cell line panel, 48 h
NCI-H460 = test system: NCI-H460
SK-OV-3 = test system: SK-OV-3
U-251 = test system: U-251
MDA-MB-231 = test system: MDA-MB-231
SK-MEL-28 = test system: SK-MEL-28
HCT-15 = test system: HCT-15
ACHN = test system: ACHN
NCI-H226 = test system: NCI-H226
SN12C = test system: SN12C
M14 = test system: M14
DU-145 = test system: DU-145
SNB-75 = test system: SNB-75
MDA-N = test system: MDA-N
T47D = test system: T47D
NCI-H23 = test system: NCI-H23
MCF7 = test system: MCF7
EKVX = test system: EKVX
HL-60 = test system: HL-60
CCRF-CEM = test system: CCRF-CEM
LOX IMVI = test system: LOX IMVI
HT-29 = test system: HT-29
SR = test system: SR
SNB-19 = test system: SNB-19
K562 = test system: K562
PC-3 = test system: PC-3
HCT-116 = test system: HCT-116
IGROV-1 = test system: IGROV-1
Hs-578T = test system: Hs-578T
NCI-H522 = test system: NCI-H522
UACC-257 = test system: UACC-257
SK-MEL-5 = test system: SK-MEL-5
HOP-62 = test system: HOP-62
RPMI-8226 = test system: RPMI-8226
OVCAR-8 = test system: OVCAR-8
OVCAR-5 = test system: OVCAR-5
BT-549 = test system: BT-549
A498 = test system: A498
Malme-3M = test system: Malme-3M
KM12 = test system: KM12
SF-295 = test system: SF-295
CAKI-1 = test system: CAKI-1
UO-31 = test system: UO-31
SW-620 = test system: SW-620
OVCAR-4 = test system: OVCAR-4
TK-10 = test system: TK-10
MDA-MB-435 = test system: MDA-MB-435
COLO 205 = test system: COLO 205
RXF 393 = test system: RXF 393
OVCAR-3 = test system: OVCAR-3
NCI/ADR-RES = test system: NCI/ADR-RES
SK-MEL-2 = test system: SK-MEL-2
HOP-92 = test system: HOP-92
MOLT-4 = test system: MOLT-4
UACC-62 = test system: UACC-62
SF-268 = test system: SF-268
HCC 2998 = test system: HCC 2998
A549 = test system: A549
SF-539 = test system: SF-539
786-0 = test system: 786-0

`CC(C)(C)CC(C)(C)c1ccc(O)c(C[N+](C)(C)[O-])c1` was tested, and the GI50 (NCI-H460) was > 100 µM (inactive), the GI50 (SK-OV-3) was > 100 µM (inactive) and the GI50 (U-251) was > 100 µM (inactive). For the same compound, the GI50 (MDA-MB-231) was > 100 µM (inactive), the GI50 (SK-MEL-28) was > 100 µM (inactive) and the GI50 (HCT-15) was over 100 µM. The GI50 (ACHN) was > 100 µM (inactive), the GI50 (NCI-H226) was > 100 µM (inactive) and the GI50 (SN12C) was > 100 µM (inactive). The GI50 (M14) was > 100 µM (inactive), the GI50 (DU-145) was > 100 µM (inactive) and the GI50 (SNB-75) was 91.2 µM (inactive). The GI50 (MDA-N) was > 100 µM (inactive), the GI50 (T47D) was 68.2 µM (inactive) and the GI50 (NCI-H23) was > 100 µM (inactive). For the same compound, the GI50 (MCF7) was 80 µM (inactive), the GI50 (EKVX) was > 100 µM (inactive) and the GI50 (HL-60) was 33.3 µM (inactive). For the same compound, the GI50 (CCRF-CEM) was 41.8 µM (inactive), the GI50 (LOX IMVI) was > 100 µM (inactive) and the GI50 (HT-29) was 73.6 µM (inactive). The GI50 (SR) was 64.9 µM (inactive), the GI50 (SNB-19) was > 100 µM (inactive) and the GI50 (K562) was 74.8 µM (inactive). For the same compound, the GI50 (PC-3) was 85.7 µM (inactive), the GI50 (HCT-116) was 98.6 µM (inactive) and the GI50 (IGROV-1) was > 100 µM (inactive). The GI50 (Hs-578T) was 65.6 µM (inactive), the GI50 (NCI-H522) was 53.5 µM (inactive) and the GI50 (UACC-257) was > 100 µM (inactive). The GI50 (SK-MEL-5) was 58.9 µM (inactive), the GI50 (HOP-62) was > 100 µM (inactive) and the GI50 (RPMI-8226) was 62.2 µM (inactive). For the same compound, the GI50 (OVCAR-8) was > 100 µM (inactive), the GI50 (OVCAR-5) was > 100 µM (inactive) and the GI50 (BT-549) was > 100 µM (inactive). For the same compound, the GI50 (A498) was > 100 µM (inactive), the GI50 (Malme-3M) was > 100 µM (inactive) and the GI50 (KM12) was > 100 µM (inactive). For the same compound, the GI50 (SF-295) was > 100 µM (inactive), the GI50 (CAKI-1) was > 100 µM (inactive) and the GI50 (UO-31) was 60.1 µM (inactive). For the same compound, the GI50 (SW-620) was > 100 µM (inactive), the GI50 (OVCAR-4) was 63.5 µM (inactive) and the GI50 (TK-10) was > 100 µM (inactive). For the same compound, the GI50 (MDA-MB-435) was 79.4 µM (inactive), the GI50 (COLO 205) was 60.3 µM (inactive) and the GI50 (RXF 393) was > 100 µM (inactive). For the same compound, the GI50 (OVCAR-3) was 58.5 µM (inactive), the GI50 (NCI/ADR-RES) was > 100 µM (inactive) and the GI50 (SK-MEL-2) was > 100 µM (inactive). The GI50 (HOP-92) was 77.4 µM (inactive), the GI50 (MOLT-4) was 53.6 µM (inactive) and the GI50 (UACC-62) was > 100 µM (inactive). For the same compound, the GI50 (SF-268) was 85.5 µM (inactive), the GI50 (HCC 2998) was 31.9 µM (inactive) and the GI50 (A549) was > 100 µM (inactive). For the same compound, the GI50 (SF-539) was > 100 µM (inactive) and the GI50 (786-0) was > 100 µM (inactive).
